pKd: −log10 of the molar value.
Experiments:
Kes1 (Kes1/Osh4) [1] = molecular target: Kes1 (Kes1/Osh4) (Saccharomyces cerevisiae, UniProt P35844, K242E/K243E/R236E); experiment: [3H]-cholesterol saturation binding, sterol:detergent micelle assay
Kes1 (Kes1/Osh4) [2] = molecular target: Kes1 (Kes1/Osh4) (Saccharomyces cerevisiae, UniProt P35844); experiment: as above

CC(C)CCC[C@@H](C)[C@H]1CC[C@H]2[C@@H]3CC=C4C[C@@H](O)CC[C@]4(C)[C@H]3CC[C@]12C [[^3H]-Cholesterol]
pKd (Kes1 (Kes1/Osh4) [1]): 6.10 to 6.30
pKd (Kes1 (Kes1/Osh4) [2]): 6.10 to 6.30

Source: paper PMC3285437 (Cell, 2012)
